Data from patent publication US7125572B2, “Tyrosinase inhibitor extract” (Kaoder Industry Company, Ltd., priority 2004, dated 2006).

Test system: tyrosinase
Assay: Determination of tyrosinase inhibitory effect (L-DOPA substrate, absorbance at 475 nm)
Conditions: comparison with arbutin, determined in a way described in Example 4
Protocol: The activity of tyrosinase was determined at the wavelength of 475 nm and calculated from the decrease of the absorbance.
35 μl of the tyrosinase inhibitor extract of Example 1 and 35 μl of 80% propylene glycol were used as the test and control samples. The inhibition percent of the tyrosinase activity was calculated by the equation: Inhibition percentage (%) of the tyrosine activity=[1−(Absorbance of experiment sample)/(Absorbance of control sample)]×100%. The DOPA and tyrosinase solution (1000 units/ml in 16.7 mM potassium phosphate butter) used in the following experiments were purchased from Sigma Corp., USA.
15.1 of tyrosinase solutions was added to each (35 μl) of six samples of tyrosinase inhibitor extract of Example 1. The resultant solutions were maintained at 25. for 0, 1, 2, 3, 4, 5, 6 hours, respectively. 450.1 of L-DOPA substrate was added to each of the solutions.
15.1 of tyrosinase solutions was added to each (35 μl) of three samples of tyrosinase inhibitor extract of Example 1. The resultant solutions were maintained at 25., 37. and 50. for 1 hour, respectively. 450.1 of L-DOPA substrate was added to each of the solutions.
15.1 of tyrosinase solutions was added to each (35 μl) of five samples of tyrosinase inhibitor extract of Example 1. The resultant solutions were maintained at pH 4, 5, 6, 7 and 8 for 1 hour, respectively. […]

% inhibitory Activity: 32+−0.0%
Compound: OC[C@H]1O[C@@H](Oc2ccc(O)cc2)[C@H](O)[C@@H](O)[C@@H]1O [Arbutin]
